# In patent US20150148759A1, “Pharmaceutical Patch for Transdermal Administration of Tapentadol” (Gruenenthal GmbH, priority 2012, published 2015):
# “And” between values parts separate entries of the source, which are not always exact repeats. Identical values can stand only once. Counter-ions that a name gives are not always drawn. Like-named read-outs stand apart in the source and are kept apart here.
# Columns and labels:
# [1] = solubility of API and API HCl in different solvents; format: physicochemical
# Procedure: The solubility of API and API HCl in different organic solvents and aqueous solutions is tested by transferring defined volumes of the solvents into micro vials. API and API HCl, respectively, are added until saturation. The solutions are centrifuged and the supernatants analyzed by HPLC (Table 1).
# [2] = compatibility of API HCl with different adhesives; format: physicochemical
# Procedure: The compatibility of the hydrochloride salt of Tapentadol (API HCl) with different types of adhesives is tested (Table 2).
# Duro-Tak 87-900A: non-functional acrylic (no hydroxyl, no carboxyl groups), non-curing
# Duro-Tak 87-4287: hydroxyl-functionalized polyacrylate-vinylacetate copolymer, non-curing
# Duro-Tak 87-2677: carboxylate-functionalized polyacrylate-vinylacetate copolymer, self-curing
# Duro-Tak 87-6911 A: tackified styrene rubber (styrene-block-butadiene-block-styrene), not functionalized
# Bio PSA 7-4502: silicone adhesive.
# [3] = system: hairless mouse skin; assay: in-vitro skin permeation from donor solution, Franz-diffusion cell; format: in vitro ADME
# Procedure: Saturated solutions of API and API HCl were prepared in a mixture of ethanol and dodecanol (95:5) and ethanol and oleic acid (85:15), respectively.
# An in-vitro permeation study was performed with the saturated solutions to show permeation of drug through mouse skin. The in-vitro experiments were conducted using a Franz-diffusion cell. The Franz-diffusion cell consists of a donor compartment and an acceptor compartment. • Skin: hairless mouse skin, female, age 6-7 weeks • Stem: Hsd: Athymic Nude-Foxn1^nu • Dermal tissue: dorsal and abdominal with all dermal layers • Breeder: Harlan Laboratories GmbH • Acceptor medium: HEPES buffer pH 7.2 • Volume acceptor: 15 mL • Volume donor: 1.0 mL • Donor solutions: • API HCl in ethanol/dodecanol (95/5) • API HCl in ethanol/oleic acid (85/15) • API in ethanol/dodecanol (95/5) • API in ethanol/oleic acid (85/15) • Permeation area: ˜1.00 cm^2 • Temperature in donor solution: 32±0.5° C. • Sampling times: 3 h, 6 h, 12 h, 18 h, 24 h • Sampling: automatic sampling system #115 • Rinsed volume: ˜7.0 mL • Sample volume: 1.0 mL • Replaced volume: 8.0 mL • Standards: • API HCl in acceptor medium • c(std A)=86.12 μg/mL • c(std B)=8.612 μg/mL • HPLC method: see above • Injection volume: variable between 3-15 μL and adjusted dilution factor
# [4] = system: pain; assay: preliminary clinical trials, pain treating effect (visual analog scale); format: in vivo, human
# Excerpt: Low serum concentrations of Tapentadol suffice to show an effect in individuals that are relatively sensitive and higher serum concentrations of Tapentadol are needed to show an effect in persons that are relatively unsensitive.
# [5] = donor ethanol/dodecanol (95:5), time between sampling 6 h, 5th interval (sampling at 24 h)
# [6] = donor ethanol/dodecanol (95:5), total dissolution time 3 h
# [7] = donor ethanol/dodecanol (95:5), total dissolution time 6 h
# [8] = donor ethanol/dodecanol (95:5), total dissolution time 12 h
# [9] = donor ethanol/oleic (85:15), time between sampling 3 h, 1st interval (sampling at 3 h)
# [10] = donor ethanol/oleic (85:15), time between sampling 3 h, 2nd interval (sampling at 6 h)
# [11] = donor ethanol/oleic (85:15), time between sampling 6 h, 3rd interval (sampling at 12 h)
# [12] = donor ethanol/oleic (85:15), time between sampling 6 h, 5th interval (sampling at 24 h)
# [13] = donor ethanol/oleic (85:15), total dissolution time 3 h
# [14] = donor ethanol/oleic (85:15), total dissolution time 6 h
# [15] = donor ethanol/oleic (85:15), total dissolution time 12 h
# [16] = donor ethanol/oleic (85:15), total dissolution time 18 h
# [17] = donor ethanol/oleic (85:15), total dissolution time 24 h
# [18] = donor ethanol/oleic (85:15), total time 3 h
# [19] = donor ethanol/oleic (85:15), total time 6 h
# [20] = donor ethanol/oleic (85:15), total time 12 h
# [21] = donor ethanol/oleic (85:15), total time 18 h
# [22] = donor ethanol/oleic (85:15), total time 24 h
# [23] = donor ethanol/dodecanol (95:5), total dissolution time 18 h
# [24] = donor ethanol/dodecanol (95:5), total dissolution time 24 h
structure (smiles),measurement,setting,value
CC[C@@H](c1cccc(O)c1)[C@@H](C)CN(C)C [API HCl],solubility,[1]; HEPES (pH = 7.2),286 mg/mL
same,solubility,[1]; acetone,0.92 mg/mL
same,solubility,[1]; aqueous solutions,excellent solubility
same,solubility,[1]; ethanol,33.1 mg/mL
same,solubility,[1]; ethylacetate,4.46 mg/mL
same,solubility,"[1]; organic solvents like ethylacetate or acetone, ethanol and n-heptane",hardly soluble
same,solubility,[1]; water (pH = 5.8),298 mg/mL
same,appearance of solution,[2]; carboxylate-functionalized DT 87-2677,yellowish solutions are clear
same,appearance of solution,[2]; hydroxyl-functionalized polymer DT 87-4287,opaque solutions which turn slightly yellow after two weeks at room temperature
same,appearance of solution,[2]; non-functionalized DT 87-900A,clear and colorless
same,appearance of solution,"[2]; silicone adhesive Bio PSA 7-4502, 2 and 5% of API HCl",clear and colorless
same,flux,[3]; [5],810.2 μg/cm^2h and 480.5 μg/cm^2h
same,permeated amount of API or API HCl,[3]; [6],0.8% and 0.2%
same,permeated amount of API or API HCl,[3]; [7],2.1% and 0.7%
same,permeated amount of API or API HCl,[3]; [8],8.0% and 2.6%
same,flux,[3]; [9],55.4 μg/cm^2h and 63.3 μg/cm^2h
same,flux,[3]; [10],107.6 μg/cm^2h and 142.2 μg/cm^2h
same,flux,[3]; [11],205.0 μg/cm^2h and 234.1 μg/cm^2h
same,flux,"[3]; donor ethanol/oleic (85:15), time between sampling 6 h, 4th interval (sampling at 18 h)",142.8 μg/cm^2h and 155.3 μg/cm^2h
same,flux,[3]; [12],114.7 μg/cm^2h and 115.8 μg/cm^2h
same,permeated amount of API or API HCl,[3]; [13],0.4% and 0.5%
same,total permeated amount of API or API HCl,[3]; [13],166.2 μg/cm^2 and 189.9 μg/cm^2
same,permeated amount of API or API HCl,[3]; [14],1.2% and 1.6%
same,total permeated amount of API or API HCl,[3]; [14],489.0 μg/cm^2 and 616.7 μg/cm^2
same,permeated amount of API or API HCl,[3]; [15],4.4% and 5.1%
same,total permeated amount of API or API HCl,[3]; [15],1718.7 μg/cm^2 and 2021.1 μg/cm^2
same,permeated amount of API or API HCl,[3]; [16],6.5% and 7.5%
same,total permeated amount of API or API HCl,[3]; [16],2575.7 μg/cm^2 and 2953.1 μg/cm^2
same,permeated amount of API or API HCl,[3]; [17],8.3% and 9.3%
same,total permeated amount of API or API HCl,[3]; [17],3263.7 μg/cm^2 and 3647.7 μg/cm^2
same,concentration of API or API HCl in sample solution,[3]; [18],10.859 µg/mL and 12.409 µg/mL
same,concentration of API or API HCl in sample solution,[3]; [19],26.807 µg/mL and 34.414 µg/mL
same,concentration of API or API HCl in sample solution,[3]; [20],94.462 µg/mL and 109.882 µg/mL
same,concentration of API or API HCl in sample solution,[3]; [21],105.741 µg/mL and 118.759 µg/mL
same,concentration of API or API HCl in sample solution,[3]; [22],100.635 µg/mL and 107.927 µg/mL
"CC[C@@H](c1cccc(O)c1)[C@@H](C)CN(C)C [API, 3-[(1R,2R)-3-(dimethylamino)-1-ethyl-2-methylpropyl]phenol]",solubility,[1]; HEPES (pH = 7.2),5.43 mg/mL
same,solubility,[1]; acetone,332 mg/mL
same,dissolved amounts of API,[1]; aqueous solutions,≤ 5.5 mg/mL
same,solubility,[1]; ethanol,404 mg/mL
same,solubility,[1]; ethylacetate,232 mg/mL
same,solubility,"[1]; n-heptane, organic solvent or mixture, thermodynamic from solid, n-heptane, read-out: solubility",1.27 mg/mL
same,API contents measured,[1]; organic solvents other than n-heptane,higher than 230 mg/mL
same,solubility,[1]; water (pH = 5.8),0.48 mg/mL
same,passes across the skin barrier,[3]; compared with the hydrochloride of Tapentadol,much better
same,flux,"[3]; donor ethanol/dodecanol (95:5), time between sampling 3 h, 1st interval (sampling at 3 h)",178.1 μg/cm^2h and 263.3 μg/cm^2h
same,flux,"[3]; donor ethanol/dodecanol (95:5), time between sampling 3 h, 2nd interval (sampling at 6 h)",314.1 μg/cm^2h and 398.7 μg/cm^2h
same,flux,"[3]; donor ethanol/dodecanol (95:5), time between sampling 6 h, 3rd interval (sampling at 12 h)",789.1 μg/cm^2h and 1056.3 μg/cm^2h
same,flux,"[3]; donor ethanol/dodecanol (95:5), time between sampling 6 h, 4th interval (sampling at 18 h)",2405.6 μg/cm^2h and 2492.9 μg/cm^2h
same,flux,[3]; [5],1028.9 μg/cm^2h and 1038.6 μg/cm^2h
same,permeated amount of API or API HCl,[3]; [6],1.0% and 1.5%
same,total permeated amount of API or API HCl,[3]; [6],534.4 μg/cm^2 and 789.9 μg/cm^2
same,permeated amount of API or API HCl,[3]; [7],2.9% and 3.9%
same,total permeated amount of API or API HCl,[3]; [7],1476.8 μg/cm^2 and 1986.1 μg/cm^2
same,permeated amount of API or API HCl,[3]; [8],12.1% and 16.2%
same,total permeated amount of API or API HCl,[3]; [8],6211.5 μg/cm^2 and 8324.0 μg/cm^2
same,permeated amount of API or API HCl,[3]; [23],40.2% and 45.4%
same,total permeated amount of API or API HCl,[3]; [23],20644.9 μg/cm^2 and 23281.6 μg/cm^2
same,permeated amount of API or API HCl,[3]; [24],52.3% and 57.5%
same,total permeated amount of API or API HCl,[3]; [24],26818.4 μg/cm^2 and 29513.4 μg/cm^2
same,concentration of API or API HCl in sample solution,"[3]; donor ethanol/dodecanol (95:5), total time 3 h",34.914 µg/mL and 51.610 µg/mL
same,concentration of API or API HCl in sample solution,"[3]; donor ethanol/dodecanol (95:5), total time 6 h",79.955 µg/mL and 105.327 µg/mL
same,concentration of API or API HCl in sample solution,"[3]; donor ethanol/dodecanol (95:5), total time 12 h",351.444 µg/mL and 469.548 µg/mL
same,concentration of API or API HCl in sample solution,"[3]; donor ethanol/dodecanol (95:5), total time 18 h",1128.078 µg/mL and 1224.529 µg/mL
same,concentration of API or API HCl in sample solution,"[3]; donor ethanol/dodecanol (95:5), total time 24 h",997.460 µg/mL and 1052.063 µg/mL
same,flux,[3]; [9],273.5 μg/cm^2h and 441.9 μg/cm^2h
same,flux,[3]; [10],1279.0 μg/cm^2h and 1897.8 μg/cm^2h
same,flux,[3]; [11],458.8 μg/cm^2h and 247.0 μg/cm^2h
same,flux,[3]; [12],572.1 μg/cm^2h and 382.5 μg/cm^2h
same,permeated amount of API or API HCl,[3]; [13],1.7% and 2.7%
same,total permeated amount of API or API HCl,[3]; [13],820.5 μg/cm^2 and 1325.6 μg/cm^2
same,permeated amount of API or API HCl,[3]; [14],9.5% and 14.3%
same,total permeated amount of API or API HCl,[3]; [14],4657.4 μg/cm^2 and 7019.0 μg/cm^2
same,permeated amount of API or API HCl,[3]; [15],15.1% and 17.3%
same,total permeated amount of API or API HCl,[3]; [15],7410.5 μg/cm^2 and 8500.8 μg/cm^2
same,permeated amount of API or API HCl,[3]; [16],17.9% and 26.6%
same,total permeated amount of API or API HCl,[3]; [16],8799.1 μg/cm^2 and 13084.6 μg/cm^2
same,permeated amount of API or API HCl,[3]; [17],24.9% and 31.3%
same,total permeated amount of API or API HCl,[3]; [17],12231.6 μg/cm^2 and 15379.8 μg/cm^2
same,concentration of API or API HCl in sample solution,[3]; [18],53.604 µg/mL and 86.606 µg/mL
same,concentration of API or API HCl in sample solution,[3]; [19],278.914 µg/mL and 417.581 µg/mL
same,concentration of API or API HCl in sample solution,[3]; [20],326.763 µg/mL and 316.739 µg/mL
same,concentration of API or API HCl in sample solution,[3]; [21],262.813 µg/mL and 466.288 µg/mL
same,concentration of API or API HCl in sample solution,[3]; [22],362.673 µg/mL and 395.534 µg/mL
"CC[C@@H](c1cccc(O)c1)[C@@H](C)CN(C)C [Tapentadol, 3-[(1R,2R)-3-(dimethylamino)-1-ethyl-2-methylpropyl]phenol]",visual analog scale (VAS) in a population mean,[4]; serum concentration about 5 ng·ml^−1,approximately −2 mm
same,visual analog scale (VAS) in a population mean,[4]; serum concentration about 300 ng·ml^−1,approximately −15 mm
